This is an account of results in patent US11905253B2, “Compounds and pharmaceutical compositions for reducing CD95-mediated cell motility” (INSTITUT NATIONAL DE LA SANTE ET DE LA RECHERCHE MEDICALE …, priority 2018, dated 2024).

Experiment [1] deals with T1, CD95/PLCγ1 interaction (SH3-PLCg1/CID-CD95) (Homo sapiens, UniProt P19174).
T1 construct: SH3—PLCγ1-F1 or DD-FADD-F1 (inset) was co-transfected into HEK293T cells; expressed in transfected cells; host or cells: HEK293T
T1 sequence (P19174 791-851): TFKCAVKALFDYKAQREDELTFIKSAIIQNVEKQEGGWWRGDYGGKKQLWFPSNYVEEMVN
In words: Renilla luciferase protein-fragment complementation assay (PCA), SH3-PLCγ1-F1 / CID-CD95-F2. It counts as cell-based. The following applies: luminescence; for IC50: HEK293T cells, exposed 4 h. Here is the method:
(§1) A. SH3—PLCγ1-F1 or DD-FADD-F1 (inset) was co-transfected into HEK293T cells along with whole CID-CD95-F2 or DD-CD95-F2 (inset). After 24 h, cells were exposed for 4 h to different compounds according to the invention at different concentrations and luminescence was assessed. The tested compounds were the compounds number 2, 3, 4, 5, 6, 7, 10, 11, 13 and 14.
(§2) F1 corresponds to the N-terminal domain of Renilla luciferase enzyme split into two fragments (F1 and F2, F2 being the C-terminal domain—see Stefan, E. et al. Proc Natl Acad Sci USA 104, 16916-21 (2007)). These F1 and F2 domains were co-expressed in HEK cells, whereupon the interaction between CD95-CID and PLCγ1, or CD95-DD and DD-FADD, allowed protein refolding and subsequent recovery of Renilla luciferase activity.
(§3) CID corresponds to amino acids 175 to 210 of CD95; DD corresponds to amino acids 210 to 303 of CD95.
(§4) Renilla luciferase-based protein-fragment complementation assay (PCA): HEK293T cells were electroporated with 10 μg DNA using a BTM-830 electroporation generator (BTX Instrument Division, Harvard Apparatus). Transfected cells were cultured for 24 h prior to PCA analyses as previously described (Poissonnier, A. et al., Immunity. 2016, 45, 209-223). Briefly, transfected cells (10^6) were washed and resuspended in 100 μL PBS and placed in OptiPlate-96 plates (Perkin-Elmer, Waltham, Mass., USA). Coelenterazine-h (5 μM, Sigma-Aldrich) was added to each well and Renilla luciferase activity was monitored for the first 10 seconds using Infinite200Pro (Tecan, Männedorf, Switzerland).

For experiment [2], the target named is T2, CD95/FADD interaction (DD-FADD/DD-CD95) (Homo sapiens, UniProt P25445+Q13158).
T2 construct: DD corresponds to amino acids 210 to 303 of CD95; expressed in transfected cells; host or cells: HEK293T
T2 sequence (P25445 226-319 limits assumed): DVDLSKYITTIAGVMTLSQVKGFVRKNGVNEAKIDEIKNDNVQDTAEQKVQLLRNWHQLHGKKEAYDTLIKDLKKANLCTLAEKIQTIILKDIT
T2 sequence (Q13158 97-181 limits assumed): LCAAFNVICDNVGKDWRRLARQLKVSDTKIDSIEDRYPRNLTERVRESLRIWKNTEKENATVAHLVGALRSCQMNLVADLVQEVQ
As to the kind of experiment: Renilla luciferase protein-fragment complementation assay (PCA), DD-FADD-F1 / DD-CD95-F2. It counts as cell-based. The following applies: luminescence. Here is the method:
as §1, §2, §3, §4

The test system of experiment [3] is CD95-mediated Ca2+ response in Th17 cells. In words: CD95-mediated Ca2+ response in Th17 cells (FIG. 5). The class given is cell-based, human. The following applies: 1 μM, 1 h pre-incubation, cl-CD95L 100 ng/mL. How it is done: All cells were purchased from ATCC (Molsheim Cedex, France). The T cell lines H9 and CEM were cultured in RPMI supplemented with 8% heat-inactivated FCS (v/v) and 2 mM L-glutamine at 37° C./5% CO2. HEK293T cells were cultured at 37° C./5% CO2 in DMEM supplemented with 8% heat-inactivated FCS and 2 mM L-glutamine. PBMCs were isolated from buffy-coat by density gradient centrifugation on lymphocyte separation medium (Eurobio, Les Ulis, France). Th17 cells (CD4+CCR6+CXCR3−) were sorted from PBMCs using a Th17 Enrichment kit (StemCell Technologies, Grenoble, France). Human umbilical vein endothelial cells (HUVEC) were grown in Endothelial Growth Medium (EGM) supplemented with 2% FCS and EGM-2 Bullet Kit (Lonza, Levallois-Perret, France).
Th17 cells were pre-incubated for 1 h with TAT-control, minCID, or compound 13 (each at 1 μM), and then stimulated with cl-CD95L (100 ng/mL). [Ca^2+]CYT was assessed in Fluo2 LR-AM (2 μM)-loaded cells.

As for `CC(O)C(N)C(=O)NCCN(C(=O)CCS)C(Cc1c[nH]c2ccccc12)C(=O)NCCN(C(=O)CCCCCN)C(Cc1cnc[nH]1)C(=O)NCCN(C(=O)CCCCNC(=N)N)C(CCCCN)C(N)=O` (centres unmarked) [Compound 7], the IC50 in experiment [1] was 78.6 µM; in experiment [2] (HEK293T cells, exposed 4 h), 325 µM. In the case of `CC(O)C(N)C(=O)NCCN(C(=O)CCS)C(CCCNC(=N)N)C(=O)NCCN(C(=O)CCc1c[nH]c2ccccc12)C(Cc1c[nH]cn1)C(=O)NCCN(C(=O)CCCCNC(=N)N)C(CCCCN)C(N)=O` (centres unmarked) [Compound 6], the IC50 in experiment [1] was 356 µM; in experiment [2] (HEK293T cells, exposed 4 h), 277 µM. In the same order, the values of `N=C(N)NCCCCC(=O)N(CCNC(=O)C(Cc1cnc[nH]1)N(CCNC(=O)C(CCCNC(=N)N)N(CCN)C(=O)CCO)C(=O)CCCCCN)C(CCCCN)C(N)=O` (centres unmarked) [Compound 16] are 79 µM and 3930 µM. For “minCID: minimum domain of CID required for interaction with PLCγ1; amino acids 182-188 (TCRKHRK) (SEQ ID NO: 1) of human CD95; positive control (minCID corresponding to amino acids 182-188 of human CD95; listed as Homo sapiens) [reference compound]”, the “disruption of the CD95/PLCγ1 interaction” value in experiment [1] (HEK cells, 4 h, FIGS. 1A, 1B, 1C) is recorded as “disrupt the CD95/PLCγ1 interaction”. For the same molecule, the “effect on the CD95/FADD interaction” value in experiment [2] (HEK cells, 4 h, FIGS. 1A, 1B, 1C (inset)) is on record as “without affecting the CD95/FADD interaction”. For the same molecule, the “CD95-mediated Ca2+ response in Th17 cells” value in experiment [3] is “inhibited”. Turning to `N=C(N)NCCCCC(=O)N(CCNC(=O)C(Cc1cnc[nH]1)N(CCNC(=O)C(CCCNC(=N)N)N(CCN)C(=O)CCS)C(=O)CCCCCN)C(CCCCN)C(N)=O` (centres unmarked) [Compound 14], the IC50 in experiment [1] was found to be 75.2 µM; in experiment [2] (HEK293T cells, exposed 4 h) it was 3800 µM. As to `N=C(N)NCCCCC(=O)N(CCNC(=O)C(Cc1cnc[nH]1)N(CCNC(=O)C(CCCNC(=N)N)N(CCN)C(=O)CCS)C(=O)CCc1c[nH]c2ccccc12)C(CCCCN)C(N)=O` (centres unmarked) [Compound 3], the IC50 in experiment [1] was 185 µM; in experiment [2] (HEK293T cells, exposed 4 h), 246 µM. Take `N=C(N)NCCCCC(=O)N(CCNC(=O)C(Cc1cnc[nH]1)N(CCNC(=O)C(CCCNC(=N)N)N(CCN)C(=O)CCS)C(=O)CCC1CNc2ccccc21)C(CCCCN)C(N)=O` (centres unmarked) [Compound 4]: the IC50 came out at 203 µM in experiment [1] and 245 µM in experiment [2] (HEK293T cells, exposed 4 h). `N=C(N)NCCCCC(=O)N(CCNC(=O)C(Cc1cnc[nH]1)N(CCNC(=O)C(CCCNC(=N)N)N(CCN)C(=O)CCS)C(=O)CCc1ccc(O)cc1)C(CCCCN)C(N)=O` (centres unmarked) [Compound 5]: the IC50 came out at 196 µM in experiment [1] and 213 µM in experiment [2] (HEK293T cells, exposed 4 h). For the molecule `CC(O)CC(=O)N(CCN)C(CS)C(=O)NCCN(C(=O)CCCCNC(=N)N)C(CCCCN)C(=O)NCCN(C(=O)CCc1c[nH]cn1)C(CCCNC(=N)N)C(=O)NCCNC(=O)CCCCCN` (centres unmarked) [Compound 12], the IC50 in experiment [1] worked out at 229 µM; in experiment [2] (HEK293T cells, exposed 4 h), 319 µM. Molecule `N=C(N)NCCCC(C(=O)NCCN(C(=O)CCCCCN)C(Cc1cnc[nH]1)C(=O)NCCN(C(=O)CCc1ccc(N)cc1)C(CCCCN)C(N)=O)N(CCN)C(=O)CCS` (centres unmarked) [Compound 27] showed an IC50 in experiment [1] of 856 µM. Take `N=C(N)NCCCCC(=O)N(CCNC(=O)C(Cc1cnc[nH]1)N(CCNC(=O)C(CCCNC(=N)N)N(CCN)C(=O)CCS)C(=O)CCCCCC(N)=O)C(CCCCN)C(N)=O` (centres unmarked) [Compound 2]: the IC50 was 315 µM in experiment [1] and 311 µM in experiment [2] (HEK293T cells, exposed 4 h). In the same order, the values of `N=C(N)NCCCCC(=O)N(CCNC(=O)C(Cc1cnc[nH]1)N(CCNC(=O)C(Cc1c[nH]c2ccccc12)N(CCN)C(=O)CCS)C(=O)CCCCCN)C(CCCCN)C(N)=O` (centres unmarked) [Compound 31] are 85.5 µM and 173 µM. The like results for `N=C(N)NCCCCC(=O)N(CCNC(=O)C(Cc1cnc[nH]1)N(CCNC(=O)C(Cc1cccnc1)N(CCN)C(=O)CCS)C(=O)CCCCCN)C(CCCCN)C(N)=O` (centres unmarked) [Compound 30] were, in that order, 907 µM and 4250 µM. With `N=C(N)NCCCC(C(=O)NCCN(C(=O)CCCCCN)C(Cc1cnc[nH]1)C(=O)NCCN(C(=O)CCc1ccc(O)cc1)C(CCCCN)C(N)=O)N(CCN)C(=O)CCS` (centres unmarked) [Compound 26], the IC50 in experiment [1] stood at 655 µM. Consider `N=C(N)NCCCCC(=O)N(CCNC(=O)C(N)CS)C(CCCCN)C(=O)NCCN(C(=O)CCc1c[nH]cn1)C(CCCNC(=N)N)C(=O)NCCNC(=O)CCCCCN` (centres unmarked) [Compound 10], for which the IC50 is 400 µM in experiment [1] and 448 µM in experiment [2] (HEK293T cells, exposed 4 h). In the same order, the values of `CCCCCCCCCCCCCCCCCC(=O)N(CCN)C(CCCNC(=N)N)C(=O)NCCN(C(=O)CCCCCN)C(Cc1cnc[nH]1)C(=O)NCCN(C(=O)CCCCNC(=N)N)C(CCCCN)C(N)=O` (centres unmarked) [Compound 1] are 34.7 µM and 33.2 µM. Turning to `CC(O)CC(=O)NC(CS)C(=O)NCCN(C(=O)CCCCNC(=N)N)C(CCCCN)C(=O)NCCN(C(=O)CCc1c[nH]cn1)C(CCCNC(=N)N)C(=O)NCCNC(=O)CCCCCN` (centres unmarked) [Compound 11], the IC50 in experiment [1] was 309 µM; in experiment [2] (HEK293T cells, exposed 4 h), 629 µM.

`CCC(=O)N(CCN)C(CCCNC(=N)N)C(=O)NCCN(C(=O)CCCCCN)C(Cc1cnc[nH]1)C(=O)NCCN(C(=O)CCCCNC(=N)N)C(CCCCN)C(N)=O` (centres unmarked) [Compound 15]: the IC50 in experiment [1] is 60.9 µM; in experiment [2] (HEK293T cells, exposed 4 h), 164 µM.

As to `N=C(N)NCCCCC(=O)N(CCNC(=O)C(Cc1cnc[nH]1)N(CCNC(=O)C(CCCNC(=N)N)N(CCN)C(=O)CCC(N)=O)C(=O)CCCCCN)C(CCCCN)C(N)=O` (centres unmarked) [Compound 17], the half-maximal inhibitory concentration (IC50) was 343 µM in experiment [1] and 720 µM in experiment [2] (HEK293T cells, exposed 4 h).

`CC(O)C(N)C(=O)NCCN(C(=O)CCS)C(CCCNC(=N)N)C(=O)NCCN(C(=O)CCCCCN)C(Cc1cnc[nH]1)C(=O)NCCN(C(=O)CCCCNC(=N)N)C(CCCCN)C(N)=O` (centres unmarked) [Compound 13] gave an IC50 in experiment [1] of 77.2 µM. Also, the “IC50 DD-FADD/DD-CD95” value in experiment [2] (HEK293T cells, exposed 4 h) is “ns”. Take `N=C(N)NCCCC(C(=O)NCCN(C(=O)CCCCCN)C(Cc1cnc[nH]1)C(=O)NCCN(C(=O)CCc1c[nH]c2ccccc12)C(CCCCN)C(N)=O)N(CCN)C(=O)CCS` (centres unmarked) [Compound 28]: the IC50 in experiment [1] came to 343 µM; in experiment [2] (HEK293T cells, exposed 4 h) it was 2650 µM.

The term IC50 denotes the point on the concentration scale where inhibition reaches its midpoint.
